According to article PMC8041284, “Tunable Methacrylamides for Covalent Ligand Directed Release Chemistry” (Journal of the American Chemical Society, 2021):
Where a SMILES comes first, the peptide text is derived from it.

molecular target: BTK (Homo sapiens, UniProt Q06187); experiment: biochemical; details: read-out: BTK inhibition (%)
Sequence (Q06187 402-655 limits assumed): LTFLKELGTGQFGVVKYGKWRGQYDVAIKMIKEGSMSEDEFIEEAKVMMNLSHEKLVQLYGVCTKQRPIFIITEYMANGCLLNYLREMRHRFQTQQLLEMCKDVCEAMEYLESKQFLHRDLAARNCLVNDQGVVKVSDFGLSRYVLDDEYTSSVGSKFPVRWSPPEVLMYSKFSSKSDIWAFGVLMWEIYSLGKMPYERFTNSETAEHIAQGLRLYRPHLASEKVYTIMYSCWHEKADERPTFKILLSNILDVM

| Compound | inhibition at 10 µM |
| --- | --- |
| C/C=C(\C)C(=O)N[C@@H](c1ccccc1)[C@@H](O)C(=O)O[C@H]1C[C@@]2(O)[C@@H](OC(=O)c3ccccc3)[C@@H]3[C@]4(OC(C)=O)CO[C@@H]4C[C@H](O)[C@@]3(C)C(=O)[C@H](OC(C)=O)C(=C1C)C2(C)C [PCM-0214711] | -8.6% |
| C[C@]12CC[C@H](O)C[C@@H]1CC[C@@H]1[C@@H]2CC[C@]2(C)C(=O)CC[C@@H]12 [PCM-0214741] | -21.8% |

same assay, conditions: read-out: BTK inhibition (%), 0.75 uM BTK, […] probe 3l, 15 min preincubation

| Compound | inhibition at 10 µM |
| --- | --- |
| CC(C)=CCC[C@](C)(O[C@@H]1O[C@H](CO[C@@H]2OC[C@@H](O)[C@H](O)[C@H]2O)[C@@H](O)[C@H](O)[C@H]1O)[C@H]1CC[C@]2(C)[C@@H]1[C@H](O)C[C@@H]1[C@@]3(C)CC[C@H](O[C@@H]4O[C@H](CO)[C@@H](O)[C@H](O)[C@H]4O)C(C)(C)[C@@H]3CC[C@]12C [PCM-0214676] | 35.8% |
| COc1ccc([C@@H]2CC(=O)c3c(O)cc(O[C@@H]4O[C@H](CO[C@@H]5O[C@@H](C)[C@H](O)[C@@H](O)[C@H]5O)[C@@H](O)[C@H](O)[C@H]4O)cc3O2)cc1O [PCM-0214677] | -7% |
| C[C@H](CCC(=O)O)[C@H]1CC[C@H]2[C@@H]3C[C@H](O)[C@@H]4C[C@H](O)CC[C@]4(C)[C@H]3CC[C@]12C [PCM-0214678] | 3.9% |
| CC1(C)O[C@H]2CC(=O)OC[C@]23[C@H]2CC[C@@]4(C)[C@H](c5ccoc5)OC(=O)[C@H]5O[C@]54[C@]2(C)C(=O)C[C@@H]13 [PCM-0214679] | -3.9% |
| CC1(C)CC[C@]2(C(=O)O)CC[C@]3(C)C(=CC[C@@H]4[C@@]5(C)CC[C@H](O)C(C)(C)[C@@H]5CC[C@]43C)[C@@H]2C1 [PCM-0214680] | 27.2% |
| C=C1C(=O)[C@]23[C@H](O)[C@H]1CC[C@H]2[C@@]12CO[C@]3(O)[C@@H](O)[C@@H]1C(C)(C)CC[C@@H]2O [PCM-0214681] | -1.6% |
| C=C1C(=O)O[C@H]2[C@H]1CC/C(C)=C/CC[C@@]1(C)O[C@@H]21 [PCM-0214682] | 18.7% |
| C=C1C[C@@]2(O)O[C@@]3(C[C@H]2C(C)C)[C@@H](C)CC[C@@H]13 [PCM-0214683] | -1.6% |
| CC(C)(O)[C@H]1CC[C@@](C)([C@H]2[C@@H](O)C[C@@]3(C)[C@@H]4C[C@H](O[C@@H]5O[C@H](CO)[C@@H](O)[C@H](O)[C@H]5O)[C@H]5C(C)(C)[C@@H](O[C@@H]6OC[C@@H](O)[C@H](O)[C@H]6O)CC[C@@]56C[C@@]46CC[C@]23C)O1 [PCM-0214684] | 5.4% |
| COc1cc(O)cc(O)c1C(=O)C=Cc1ccccc1 [PCM-0214685] | 12.5% |
| C[C@]12CC[C@H](O)CC1=CC[C@@H]1[C@@H]2CC[C@]2(C)C(=O)CC[C@@H]12 [PCM-0214686] | -24.9% |
| CN[C@@H]1[C@H](O)[C@H](NC)[C@H]2O[C@@]3(O)C(=O)C[C@@H](C)O[C@H]3O[C@@H]2[C@H]1O [PCM-0214688] | 2.3% |
| C[C@@H](NCCc1ccc(O)cc1)[C@@H](O)c1ccc(O)cc1 [PCM-0214689] | 0% |
| CC[C@@H]1/C=C(\C)C[C@H](C)C[C@H](OC)[C@H]2O[C@@](O)(C(=O)C(=O)N3CCCC[C@H]3C(=O)O[C@H](/C(C)=C/[C@@H]3CC[C@H](Cl)[C@H](OC)C3)[C@H](C)[C@@H](O)CC1=O)[C@H](C)C[C@@H]2OC [PCM-0214690] | -13.8% |
| COc1ccc([C@@H]2CC(=O)c3c(O)cc(O[C@@H]4O[C@H](CO)[C@@H](O)[C@H](O)[C@H]4O[C@@H]4O[C@@H](C)[C@H](O)[C@@H](O)[C@H]4O)cc3O2)cc1O [PCM-0214691] | -10.3% |
| COC(=O)N1CCN(Cc2cccc(NC(=O)Nc3ccc(C)nc3)c2F)CC1 [PCM-0214694] | 0.8% |
| Cc1onc(-c2ccccc2Cl)c1C(=O)N[C@@H]1C(=O)N2[C@@H]1SC(C)(C)[C@@H]2C(=O)O [PCM-0214695] | -5.4% |
| C[C@@H]1CCO[C@H]2Cn3cc(C(=O)NCc4ccc(F)cc4F)c(=O)c(O)c3C(=O)N12 [PCM-0214696] | 30.4% |
| CCc1c(C(=O)NCCc2ccc(N3CCCCC3)cc2)[nH]c2ccc(Cl)cc12 [PCM-0214697] | 2.3% |
| Cc1cc(N2CCOCC2)cc2[nH]c(-c3c(NC[C@@H](O)c4cccc(Cl)c4)cc[nH]c3=O)nc12 [PCM-0214699] | 109% |
| CC(=O)OCC(=O)[C@@]12OC(C)(C)O[C@@H]1C[C@H]1[C@@H]3C[C@H](F)C4=CC(=O)C=C[C@]4(C)[C@@]3(F)[C@@H](O)C[C@@]12C [PCM-0214700] | 19.3% |
| CC(=O)OCC(=O)[C@@]1(O)CC[C@H]2[C@@H]3CCC4=CC(=O)C=C[C@]4(C)[C@H]3[C@@H](O)C[C@@]21C [PCM-0214701] | 2.1% |
| CC1(C)CC(=O)c2c(C(F)(F)F)nn(-c3ccc(C(N)=O)c(NC4CCC(OC(=O)CN)CC4)c3)c2C1 (centres unmarked) [PCM-0214703] | 1.6% |
| NCc1c[nH]c(=S)n1[C@H]1CCc2c(F)cc(F)cc2C1 [PCM-0214705] | -17.1% |
| COC(=O)C1=C(C)NC(C)=C(C(=O)O[C@@H]2CCCN(Cc3ccccc3)C2)[C@@H]1c1cccc([N+](=O)[O-])c1 [PCM-0214706] | 80.9% |
| CCC(=O)O[C@]1(C(=O)SCF)[C@H](C)C[C@H]2[C@@H]3C[C@H](F)C4=CC(=O)C=C[C@]4(C)[C@@]3(F)[C@@H](O)C[C@@]21C [PCM-0214707] | 15.2% |
| COC(=O)[C@H](Cc1ccccc1)NC(=O)[C@@H](N)CC(=O)O [PCM-0214708] (H-Asp-Phe-OMe) | 6.2% |

| Compound | inhibition at 10 µM |
| --- | --- |
| C[C@@H]1C/C=C/C=C/C=C/C=C/[C@H](O[C@@H]2O[C@H](C)[C@@H](O)[C@H](N)[C@@H]2O)C[C@@H]2O[C@](O)(C[C@@H](O)C[C@H]3O[C@@H]3/C=C/C(=O)O1)C[C@H](O)[C@H]2C(=O)O [PCM-0214709] | -22.6% |
| CC(=O)O[C@]1(C(C)=O)CC[C@H]2[C@@H]3C=C(Cl)C4=CC(=O)[C@@H]5C[C@@H]5[C@]4(C)[C@H]3CC[C@@]21C [PCM-0214712] | 21% |
| NC[C@H](O)c1ccc(O)c(O)c1 [PCM-0214713] | -5.4% |
| CC(C)C[C@H](NC(=O)[C@@H](NC(=O)c1cccc(-c2ccccc2)n1)[C@@H](C)O)B(O)O [PCM-0214714] | 6.2% |
| CO[C@H]1C(=O)[C@]2(C)[C@@H](OC)C[C@H]3OC[C@@]3(OC(C)=O)[C@H]2[C@H](OC(=O)c2ccccc2)[C@]2(O)C[C@H](OC(=O)[C@H](O)[C@@H](NC(=O)OC(C)(C)C)c3ccccc3)C(C)=C1C2(C)C [PCM-0214715] | -14.8% |
| CC[C@H](C)C(=O)O[C@H]1C[C@H](O)C=C2C=C[C@H](C)[C@H](CC[C@@H](O)C[C@@H](O)CC(=O)O)[C@H]21 [PCM-0214717] | -3.1% |
| CC(C)(C)NC(=O)[C@H]1CC[C@H]2[C@@H]3CC[C@H]4NC(=O)C=C[C@]4(C)[C@H]3CC[C@]12C [PCM-0214718] | 13.2% |
| C[C@H]1O[C@H](O[C@H]2[C@H](O)[C@@H](O)[C@@H](O[C@@H]([C@H](O)[C@@H](O)C=O)[C@H](O)CO)O[C@@H]2CO)[C@H](O)[C@@H](O)[C@@H]1N[C@H]1C=C(CO)[C@@H](O)[C@H](O)[C@H]1O [PCM-0214720] | -7% |
| CCCCC(=O)O[C@H]1CC[C@H]2[C@@H]3CCc4cc(O)ccc4[C@H]3CC[C@]12C [PCM-0214721] | 17.9% |
| CC1(C)S[C@@H]2[C@H](NC(=O)C(C(=O)O)c3ccccc3)C(=O)N2[C@H]1C(=O)O (some centres unmarked) [PCM-0214723] | 10.1% |
| CC1(C)S[C@@H]2[C@H](NC(=O)[C@H](C(=O)O)c3ccsc3)C(=O)N2[C@H]1C(=O)O [PCM-0214724] | -1.6% |
| Cc1cc([C@@H](C)Nc2ccccc2C(=O)O)c2nc(N3CCOCC3)cc(=O)n2c1 [PCM-0214725] | -6.9% |
| COc1cc2c(c(OC)c1OC)-c1c(cc3c(c1OC)OCO3)CC(C)C(C)C2 (centres unmarked) [PCM-0214727] | 11.7% |
| O=C1C(=O)c2ccccc2C(O)=C1C1CCC(c2ccc(Cl)cc2)CC1 (centres unmarked) [PCM-0214729] | 16.3% |
| C=C(C)[C@@H]1CC[C@]2(C(=O)O)CC[C@]3(C)[C@H](CC[C@@H]4[C@@]5(C)CC[C@H](O)C(C)(C)[C@@H]5CC[C@]43C)[C@@H]12 [PCM-0214730] | 3.9% |
| Cc1ncc(CCCN(C)C)cc1Nc1ncc2c(n1)-c1ccc(C(F)(F)F)cc1NC(=S)C2 [PCM-0214732] | 24.1% |
| CCOC(=O)CCC(=O)O[C@H]1[C@H](O[C@@H]2[C@@H](C)[C@H](O[C@H]3C[C@@](C)(OC)[C@@H](O)[C@H](C)O3)[C@@H](C)C(=O)O[C@H](CC)[C@@](C)(O)[C@H](O)[C@@H](C)C(=O)[C@H](C)C[C@@]2(C)O)O[C@H](C)C[C@@H]1N(C)C [PCM-0214733] | -14.8% |
| NC(N)=Nc1nc(CSCC/C(N)=N/S(N)(=O)=O)cs1 [PCM-0214735] | -26.2% |
| CC[C@H]1OC(=O)[C@H](C)[C@@H](O[C@H]2C[C@@](C)(OC)[C@@H](O)[C@H](C)O2)[C@H](C)[C@@H](O[C@@H]2O[C@H](C)C[C@H](N(C)C)[C@H]2O)[C@](C)(O)C[C@@H](C)/C(=N\OCOCCOC)[C@H](C)[C@@H](O)[C@]1(C)O [PCM-0214736] | 3.9% |
| Cc1cn([C@H]2O[C@@H](CO)[C@H](O)[C@H]2F)c(=O)[nH]c1=O [PCM-0214737] | 23.3% |
| CC(C)CN(C[C@@H](O)[C@H](Cc1ccccc1)NC(=O)O[C@H]1CCOC1)S(=O)(=O)c1ccc(N)cc1 [PCM-0214738] | -41.2% |
| O=C(O)c1cc(N=Nc2ccc(S(=O)(=O)Nc3ccccn3)cc2)ccc1O [PCM-0214740] | 48.3% |
| C[C@H](CCC(=O)O)[C@H]1CC[C@H]2[C@@H]3CC[C@@H]4C[C@H](O)CC[C@]4(C)[C@H]3CC[C@]12C [PCM-0214742] | -8.6% |
| CCOc1ccc2ccccc2c1C(=O)N[C@@H]1C(=O)N2[C@@H]1SC(C)(C)[C@@H]2C(=O)O [PCM-0214744] | -11.7% |
| O=C(O)c1cc(N=Nc2ccc(O)c(C(=O)O)c2)ccc1O [PCM-0214745] | 17.2% |
| C=C1CC[C@H](O)C/C1=C/C=C1\CCC[C@]2(C)[C@@H]([C@H](C)/C=C/[C@H](C)C(C)C)CC[C@@H]12 [PCM-0214746] | -23.3% |
| Cc1onc(-c2c(Cl)cccc2Cl)c1C(=O)N[C@@H]1C(=O)N2[C@@H]1SC(C)(C)[C@@H]2C(=O)O [PCM-0214747] | 9.3% |
